Laboratory results reported in the supplement of paper PMC10307832.

Legend:
Test in all cases: relative viability (nuclei count vs DMSO), 5 days (fraction); higher = more cells survive
NCI-H1648 = tested on: NCI-H1648
In short: (§1)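 After 5 days of treatment, lung cancer cells in 1536-well plates were fixed and stained in a single step (final 0.05% Triton X-100, 1% formaldehyde, 1 ug/ml Hoechst) and their nuclei counted on 4× images. Treatment had been applied by pin tool the day after seeding as one drug alone or as a fixed anchor-drug dose with five library-drug doses (not always all listed) in √10 steps. Relative viability is the nuclei count of treated wells divided by that of vehicle wells, and values are medians of duplicate plates.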

NCI-H522 = tested on: NCI-H522
In short: as §1

NCI-H2342 = tested on: NCI-H2342
In short: as §1

SW 900 = tested on: SW 900
In short: as §1

NCI-H1563 = tested on: NCI-H1563
In short: as §1

SMILES | relative viability (NCI-H1648; first compound 0.08 µM) | relative viability (NCI-H1648; first compound 0.253 µM) | relative viability (NCI-H1648; first compound 0.8 µM) | relative viability (NCI-H1648; first compound 2.53 µM) | relative viability (NCI-H522; first compound 0.08 µM) | relative viability (NCI-H522; first compound 0.253 µM) | relative viability (NCI-H522; first compound 0.8 µM) | relative viability (NCI-H522; first compound 2.53 µM) | relative viability (NCI-H2342; first compound 0.08 µM) | relative viability (NCI-H2342; first compound 0.253 µM) | relative viability (NCI-H2342; first compound 0.8 µM) | relative viability (NCI-H2342; first compound 2.53 µM) | relative viability (SW 900; first compound 0.08 µM) | relative viability (SW 900; first compound 0.253 µM) | relative viability (SW 900; first compound 0.8 µM) | relative viability (SW 900; first compound 2.53 µM) | relative viability (NCI-H1563; first compound 0.08 µM) | relative viability (NCI-H1563; first compound 0.253 µM) | relative viability (NCI-H1563; first compound 0.8 µM) | relative viability (NCI-H1563; first compound 2.53 µM) | relative viability (NCI-H1648; first compound 5 µM) | relative viability (NCI-H1648; first compound 15.81 µM) | relative viability (NCI-H1648; first compound 50 µM) | relative viability (NCI-H1648; first compound 158.11 µM) | relative viability (NCI-H1648; first compound 500 µM) | relative viability (NCI-H522; first compound 5 µM) | relative viability (NCI-H522; first compound 15.81 µM) | relative viability (NCI-H522; first compound 50 µM) | relative viability (NCI-H522; first compound 158.11 µM) | relative viability (NCI-H522; first compound 500 µM) | relative viability (NCI-H2342; first compound 5 µM) | relative viability (NCI-H2342; first compound 15.81 µM) | relative viability (NCI-H2342; first compound 50 µM) | relative viability (NCI-H2342; first compound 158.11 µM) | relative viability (NCI-H2342; first compound 500 µM) | relative viability (SW 900; first compound 5 µM) | relative viability (SW 900; first compound 50 µM) | relative viability (SW 900; first compound 158.11 µM) | relative viability (SW 900; first compound 500 µM)
Cc1cnc(-c2cnc(NCCNc3ccc(C#N)cn3)nc2-c2ccc(Cl)cc2Cl)[nH]1 + CC(=O)Nc1cccc(-n2c(=O)n(C3CC3)c(=O)c3c(Nc4ccc(I)cc4F)n(C)c(=O)c(C)c32)c1 [Trametinib] (partner 0.02 µM) | 0.5 | 0.381 | 0.476 | 0.456 | 0.909 | 0.719 | 0.799 | 0.722 | 0.923 | 0.653 | 0.801 | 0.697 | 0.905 | 0.629 | 0.772 | 0.765 | – | – | – | – | – | – | – | – | – | – | – | – | – | – | – | – | – | – | – | – | – | – | –
Cc1cnc(-c2cnc(NCCNc3ccc(C#N)cn3)nc2-c2ccc(Cl)cc2Cl)[nH]1 + CC(=O)c1c(C)c2cnc(Nc3ccc(N4CCNCC4)cn3)nc2n(C2CCCC2)c1=O [Palbociclib] (partner 0.5 µM) | 0.267 | 0.243 | 0.265 | 0.265 | 1.15 | 0.927 | 0.974 | 0.862 | 0.522 | 0.516 | 0.557 | 0.463 | 0.565 | 0.513 | 0.528 | 0.515 | – | – | – | – | – | – | – | – | – | – | – | – | – | – | – | – | – | – | – | – | – | – | –
Cc1cnc(-c2cnc(NCCNc3ccc(C#N)cn3)nc2-c2ccc(Cl)cc2Cl)[nH]1 + Nc1nc2[nH]cc(CCc3ccc(C(=O)N[C@@H](CCC(=O)O)C(=O)O)cc3)c2c(=O)[nH]1 [Pemetrexed] (partner 0.2 µM) | 0.545 | 0.723 | 0.703 | 0.653 | 1.08 | 1.03 | 0.97 | 1.07 | 0.823 | 0.633 | 0.721 | 0.736 | 0.501 | 0.487 | 0.478 | 0.438 | 0.746 | 0.805 | 0.768 | 0.722 | – | – | – | – | – | – | – | – | – | – | – | – | – | – | – | – | – | – | –
O=C(O)CCCCC(CCSCc1ccccc1)SCc1ccccc1 (stereo not given) [CPI-613] + CC(=O)Nc1cccc(-n2c(=O)n(C3CC3)c(=O)c3c(Nc4ccc(I)cc4F)n(C)c(=O)c(C)c32)c1 [Trametinib] (partner 0.02 µM) | – | – | – | – | – | – | – | – | – | – | – | – | – | – | – | – | – | – | – | – | 0.454 | 0.376 | 0.533 | 0.218 | 0.14 | 0.707 | 0.739 | 0.751 | 0.651 | 0.284 | 0.747 | 0.888 | 0.977 | 0.786 | 0.955 | 0.701 | 0.706 | 0.359 | 0.0323
O=C(O)CCCCC(CCSCc1ccccc1)SCc1ccccc1 (stereo not given) [CPI-613] + CC(=O)c1c(C)c2cnc(Nc3ccc(N4CCNCC4)cn3)nc2n(C2CCCC2)c1=O [Palbociclib] (partner 0.5 µM) | – | – | – | – | – | – | – | – | – | – | – | – | – | – | – | – | – | – | – | – | 0.285 | 0.302 | 0.299 | 0.192 | 0.128 | 1.03 | 1.13 | 1.08 | 0.708 | 0.301 | 0.497 | 0.536 | 0.492 | 0.52 | 0.588 | 0.57 | 0.557 | 0.208 | 0.0276
